{"source": "ChEMBL document CHEMBL6109109", "about": "“Fatty acid binding protein 5 inhibitors as novel anticancer agents against metastatic castration-resistant prostate cancer” (Bioorg Med Chem, 2025)", "format_in_all_cases": "functional", "key": {"PC-3 [1]": {"system": "PC-3", "assay": "Cytotoxicity against human PC-3 cells assessed as cell growth inhibition at […] measured after 72 hrs by MTT assay relative to control", "conditions": "dose 2.5 µM, read-out: GI"}, "PC-3 [2]": {"system": "PC-3", "assay": "Cytotoxicity against human PC-3 cells assessed as cell growth inhibition at 1.25 uM measured after 72 hrs by MTT assay relative to control", "conditions": "read-out: GI"}, "PC-3 [3]": {"system": "PC-3", "assay": "Cytotoxicity against human PC-3 cells assessed as cell growth inhibition at 0.625 uM measured after 72 hrs by MTT assay relative to control", "conditions": "read-out: GI"}, "PC-3 [4]": {"system": "PC-3", "assay": "Synergistic anticancer activity against human PC-3 cells assessed as cell growth inhibition at […] measured after 72 hrs in presence of 0.00001 uM of topotecan by MTT assay relative to control", "conditions": "dose 2.5 µM, read-out: GI"}, "PC-3 [5]": {"system": "PC-3", "assay": "Synergistic anticancer activity against human PC-3 cells assessed as cell growth inhibition at […] measured after 72 hrs in presence of 0.0001 uM of topotecan by MTT assay relative to control", "conditions": "dose 2.5 µM, read-out: GI"}, "PC-3 [6]": {"system": "PC-3", "assay": "Synergistic anticancer activity against human PC-3 cells assessed as cell growth inhibition at […] measured after 72 hrs in presence of 0.01 uM of topotecan by MTT assay relative to control", "conditions": "dose 2.5 µM, read-out: GI"}, "PC-3 [7]": {"system": "PC-3", "assay": "Synergistic anticancer activity against human PC-3 cells assessed as cell growth inhibition at […] measured after 72 hrs in presence of 0.1 uM of topotecan by MTT assay relative to control", "conditions": "dose 2.5 µM, read-out: GI"}, "PC-3 [8]": {"system": "PC-3", "assay": "Synergistic anticancer activity against human PC-3 cells assessed as cell growth inhibition at […] measured after 72 hrs in presence of 10 uM of topotecan by MTT assay relative to control", "conditions": "dose 2.5 µM, read-out: GI"}, "PC-3 [9]": {"system": "PC-3", "assay": "Synergistic anticancer activity against human PC-3 cells assessed as cell growth inhibition at 1.25 uM measured after 72 hrs in presence of 0.0001 uM of topotecan by MTT assay relative to control", "conditions": "read-out: GI"}, "PC-3 [10]": {"system": "PC-3", "assay": "Synergistic anticancer activity against human PC-3 cells assessed as cell growth inhibition at 1.25 uM measured after 72 hrs in presence of 0.001 uM of topotecan by MTT assay relative to control", "conditions": "read-out: GI"}, "PC-3 [11]": {"system": "PC-3", "assay": "Synergistic anticancer activity against human PC-3 cells assessed as cell growth inhibition at 1.25 uM measured after 72 hrs in presence of 0.01 uM of topotecan by MTT assay relative to control", "conditions": "read-out: GI"}, "PC-3 [12]": {"system": "PC-3", "assay": "Synergistic anticancer activity against human PC-3 cells assessed as cell growth inhibition at 1.25 uM measured after 72 hrs in presence of 0.1 uM of topotecan by MTT assay relative to control", "conditions": "read-out: GI"}, "PC-3 [13]": {"system": "PC-3", "assay": "Synergistic anticancer activity against human PC-3 cells assessed as cell growth inhibition at 1.25 uM measured after 72 hrs in presence of 1 uM of topotecan by MTT assay relative to control", "conditions": "read-out: GI"}, "PC-3 [14]": {"system": "PC-3", "assay": "Synergistic anticancer activity against human PC-3 cells assessed as cell growth inhibition at 1.25 uM measured after 72 hrs in presence of 10 uM of topotecan by MTT assay relative to control", "conditions": "read-out: GI"}, "PC-3 [15]": {"system": "PC-3", "assay": "Synergistic anticancer activity against human PC-3 cells assessed as cell growth inhibition at 0.625 uM measured after 72 hrs in presence of 0.00001 uM of topotecan by MTT assay relative to control", "conditions": "read-out: GI"}, "PC-3 [16]": {"system": "PC-3", "assay": "Synergistic anticancer activity against human PC-3 cells assessed as cell growth inhibition at 0.625 uM measured after 72 hrs in presence of 0.0001 uM of topotecan by MTT assay relative to control", "conditions": "read-out: GI"}, "PC-3 [17]": {"system": "PC-3", "assay": "Synergistic anticancer activity against human PC-3 cells assessed as cell growth inhibition at 0.625 uM measured after 72 hrs in presence of 0.001 uM of topotecan by MTT assay relative to control", "conditions": "read-out: GI"}, "PC-3 [18]": {"system": "PC-3", "assay": "Synergistic anticancer activity against human PC-3 cells assessed as cell growth inhibition at 0.625 uM measured after 72 hrs in presence of 0.01 uM of topotecan by MTT assay relative to control", "conditions": "read-out: GI"}, "PC-3 [19]": {"system": "PC-3", "assay": "Synergistic anticancer activity against human PC-3 cells assessed as cell growth inhibition at 0.625 uM measured after 72 hrs in presence of 0.1 uM of topotecan by MTT assay relative to control", "conditions": "read-out: GI"}, "PC-3 [20]": {"system": "PC-3", "assay": "Synergistic anticancer activity against human PC-3 cells assessed as cell growth inhibition at 0.625 uM measured after 72 hrs in presence of 1 uM of topotecan by MTT assay relative to control", "conditions": "read-out: GI"}, "PC-3 [21]": {"system": "PC-3", "assay": "Synergistic anticancer activity against human PC-3 cells assessed as cell growth inhibition at 0.625 uM measured after 72 hrs in presence of 10 uM of topotecan by MTT assay relative to control", "conditions": "read-out: GI"}, "[22]": {"assay": "Cytotoxicity against mouse RCaP cells assessed as cell growth inhibition at 1.25 uM measured after 72 hrs by MTT assay relative to control", "conditions": "read-out: GI"}, "[23]": {"assay": "Synergistic anticancer activity against mouse RCaP cells assessed as cell growth inhibition at 1.25 uM measured after 72 hrs in presence of 0.00001 uM of topotecan by MTT assay relative to control", "conditions": "read-out: GI"}, "[24]": {"assay": "Synergistic anticancer activity against mouse RCaP cells assessed as cell growth inhibition at 1.25 uM measured after 72 hrs in presence of 0.0001 uM of topotecan by MTT assay relative to control", "conditions": "read-out: GI"}, "[25]": {"assay": "Synergistic anticancer activity against mouse RCaP cells assessed as cell growth inhibition at 1.25 uM measured after 72 hrs in presence of 0.001 uM of topotecan by MTT assay relative to control", "conditions": "read-out: GI"}, "[26]": {"assay": "Synergistic anticancer activity against mouse RCaP cells assessed as cell growth inhibition at 1.25 uM measured after 72 hrs in presence of 0.01 uM of topotecan by MTT assay relative to control", "conditions": "read-out: GI"}, "[27]": {"assay": "Synergistic anticancer activity against mouse RCaP cells assessed as cell growth inhibition at 1.25 uM measured after 72 hrs in presence of 0.1 uM of topotecan by MTT assay relative to control", "conditions": "read-out: GI"}, "[28]": {"assay": "Synergistic anticancer activity against mouse RCaP cells assessed as cell growth inhibition at 1.25 uM measured after 72 hrs in presence of 10 uM of topotecan by MTT assay relative to control", "conditions": "read-out: GI"}, "[29]": {"assay": "Synergistic anticancer activity against mouse RCaP cells assessed as cell growth inhibition at 0.625 uM measured after 72 hrs in presence of 0.00001 uM of topotecan by MTT assay relative to control", "conditions": "read-out: GI"}, "[30]": {"assay": "Synergistic anticancer activity against mouse RCaP cells assessed as cell growth inhibition at 0.625 uM measured after 72 hrs in presence of 0.0001 uM of topotecan by MTT assay relative to control", "conditions": "read-out: GI"}, "[31]": {"assay": "Synergistic anticancer activity against mouse RCaP cells assessed as cell growth inhibition at 0.625 uM measured after 72 hrs in presence of 0.01 uM of topotecan by MTT assay relative to control", "conditions": "read-out: GI"}, "[32]": {"assay": "Synergistic anticancer activity against mouse RCaP cells assessed as cell growth inhibition at 0.625 uM measured after 72 hrs in presence of 0.1 uM of topotecan by MTT assay relative to control", "conditions": "read-out: GI"}, "[33]": {"assay": "Synergistic anticancer activity against mouse RCaP cells assessed as cell growth inhibition at 0.625 uM measured after 72 hrs in presence of 1 uM of topotecan by MTT assay relative to control", "conditions": "read-out: GI"}, "[34]": {"assay": "Synergistic anticancer activity against mouse RCaP cells assessed as cell growth inhibition at 0.625 uM measured after 72 hrs in presence of 10 uM of topotecan by MTT assay relative to control", "conditions": "read-out: GI"}}, "data": [{"compound": "COc1ccccc1[C@H]1[C@H](C(=O)O)[C@H](c2ccccc2OC)[C@H]1C(=O)Oc1cc(-c2ccc3c(c2)OCO3)ccc1-c1ccccc1", "values": [{"measurement": "inhibition of growth at […]", "setting": "PC-3 [1]", "value": 7.37, "unit": "%"}, {"measurement": "inhibition of growth at 1.25 µM", "setting": "PC-3 [2]", "value": -2.3, "unit": "%"}, {"measurement": "inhibition of growth at 0.625 µM", "setting": "PC-3 [3]", "value": -2.63, "unit": "%"}, {"measurement": "inhibition of growth at […]", "setting": "PC-3 [4]", "value": 15.1, "unit": "%"}, {"measurement": "inhibition of growth at […]", "setting": "PC-3 [5]", "value": 25.3, "unit": "%"}, {"measurement": "inhibition of growth at […]", "setting": "PC-3 [6]", "value": 54.6, "unit": "%"}, {"measurement": "inhibition of growth at […]", "setting": "PC-3 [7]", "value": 67.4, "unit": "%"}, {"measurement": "inhibition of growth at […]", "setting": "PC-3 [8]", "value": 92.9, "unit": "%"}, {"measurement": "inhibition of growth at 1.25 µM", "setting": "PC-3 [9]", "value": 14.7, "unit": "%"}, {"measurement": "inhibition of growth at 1.25 µM", "setting": "PC-3 [10]", "value": 33.1, "unit": "%"}, {"measurement": "inhibition of growth at 1.25 µM", "setting": "PC-3 [11]", "value": 55.8, "unit": "%"}, {"measurement": "inhibition of growth at 1.25 µM", "setting": "PC-3 [12]", "value": 72.5, "unit": "%"}, {"measurement": "inhibition of growth at 1.25 µM", "setting": "PC-3 [13]", "value": 92.3, "unit": "%"}, {"measurement": "inhibition of growth at 1.25 µM", "setting": "PC-3 [14]", "value": 93.4, "unit": "%"}, {"measurement": "inhibition of growth at 0.625 µM", "setting": "PC-3 [15]", "value": 1.6, "unit": "%"}, {"measurement": "inhibition of growth at 0.625 µM", "setting": "PC-3 [16]", "value": 8.03, "unit": "%"}, {"measurement": "inhibition of growth at 0.625 µM", "setting": "PC-3 [17]", "value": 16.9, "unit": "%"}, {"measurement": "inhibition of growth at 0.625 µM", "setting": "PC-3 [18]", "value": 48, "unit": "%"}, {"measurement": "inhibition of growth at 0.625 µM", "setting": "PC-3 [19]", "value": 69.4, "unit": "%"}, {"measurement": "inhibition of growth at 0.625 µM", "setting": "PC-3 [20]", "value": 90.2, "unit": "%"}, {"measurement": "inhibition of growth at 0.625 µM", "setting": "PC-3 [21]", "value": 93.2, "unit": "%"}, {"measurement": "inhibition of growth at 1.25 µM", "setting": "[22]", "value": -1.17, "unit": "%"}, {"measurement": "inhibition of growth at 1.25 µM", "setting": "[23]", "value": -1.87, "unit": "%"}, {"measurement": "inhibition of growth at 1.25 µM", "setting": "[24]", "value": -1.6, "unit": "%"}, {"measurement": "inhibition of growth at 1.25 µM", "setting": "[25]", "value": 0.37, "unit": "%"}, {"measurement": "inhibition of growth at 1.25 µM", "setting": "[26]", "value": 8.37, "unit": "%"}, {"measurement": "inhibition of growth at 1.25 µM", "setting": "[27]", "value": 90, "unit": "%"}, {"measurement": "inhibition of growth at 1.25 µM", "setting": "[28]", "value": 99.2, "unit": "%"}, {"measurement": "inhibition of growth at 0.625 µM", "setting": "[29]", "value": -2.77, "unit": "%"}, {"measurement": "inhibition of growth at 0.625 µM", "setting": "[30]", "value": -3.7, "unit": "%"}, {"measurement": "inhibition of growth at 0.625 µM", "setting": "[31]", "value": 10, "unit": "%"}, {"measurement": "inhibition of growth at 0.625 µM", "setting": "[32]", "value": 90.2, "unit": "%"}, {"measurement": "inhibition of growth at 0.625 µM", "setting": "[33]", "value": 97.9, "unit": "%"}, {"measurement": "inhibition of growth at 0.625 µM", "setting": "[34]", "value": 99.2, "unit": "%"}]}]}
